Like-named read-outs stand apart in the source and are kept apart here.
Columns and labels:
mice = experiment: Streptozotocin-induced diabetic neuropathy, hot plate test (thermal hyperalgesia); assay type: in vivo, Albino Swiss mice; settings: diabetic (STZ) mice, 10 mg/kg i.p.; for Analgesic activity (hot plate): vs pre-drug latency
Protocol: The induction of diabetes neuropathy in mice was achieved through the administration of streptozotocin (STZ), dissolved in PBS at a dose of 200 mg/kg in a constant volume of 0.1 mL/10 g of mouse body weight, intraperitoneally; (n = 50). Blood glucose levels were measured immediately prior to the administration of streptozotocin and 14 and 21 days following this administration in order to confirm the presence of hyperglycemia. For this purpose, 5 µL of blood was drawn from the tail vein of the mice using a strip glucose meter (AccuChek Active, Roche, Boulogne-Billancourt, France).
To assess increased sensitivity to thermal stimuli, we used a hot plate testing apparatus (Panlab/Harvard Apparatus, Cornellà de Llobregat, Spain), following the methodology originally described by. In this procedure, after determining the baseline pain response time, 30 min after drug administration, mice were placed on a hot plate maintained at 55 °C and monitored for pain-related behaviors such as licking their hind paws or jumping. To avoid potential damage to paw tissue, a time limit of 45 s was set.

[1] = Pharmacokinetic study after single i.p. administration, serum and brain concentrations by LC-MS/MS, non-compartmental analysis; assay type: in vivo, Albino Swiss mice; settings: mice; for Kp: brain/serum, read-out: Kbrain/serum (brain/serum partitioning coefficient); for Kp / MRT / Tmax / half-life / k el / CL/F / Vd/F / AUC0-inf / AUC0–8h: 5 mg/kg i.p.; for half-life: read-out: t1/2(λz) half-life in the elimination phase (converted); for k el: read-out: λz (terminal elimination rate constant) (converted); for Vd/F: read-out: Vz/F
Protocol: The compounds F1, F2, F3, and F4 were suspended in a 1% Tween 80 solution in sterile water for injection and given to mice i.p. at a dose of 5 mg/kg (n = 3 per time point; all mice in procedure = 96) as a single injection at a volume of 10 mL/kg. At specific time points (5; 15; 30; 60; 120; 240; 360; and 480 min after compound administration), mice were sacrificed by decapitation under isoflurane (5%) anesthesia to harvest blood and brain for assays. After allowing the blood to coagulate for 20 min at room temperature, blood samples were centrifuged for 10 min at 8000 rpm (Eppendorf miniSpin centrifuge) to obtain serum. Moreover, brains were removed (at the same time point) from skulls and washed with 0.9% NaCl. The obtained serum and brains were stored at −80 °C until analysis.
Concentrations of compounds F1 to F4 in mice brains and serum were measured by the liquid chromatography tandem mass spectrometry (LC-MS/MS) method using a Sciex QTRAP 4500 triple quadrupole mass spectrometer coupled to an Excion LC AC HPLC system (both from Danaher Corporation, Washington, DC, USA). The brains were homogenized in distilled water at the ratio of 1:4 (w/v) with a tissue homogenizer ULTRA-TURRAX T10 basic (IKA, Königswinter, Germany). The stock solutions of analyzed compounds were prepared in methanol at the concentration of 1 mg/mL. For the preparation of calibration curves, working standard solutions were prepared in methanol by the serial dilution of the stock solution at the following concentrations: 0.005; 0.01; 0.1; 0.25; 0.5; 1; 2.5; 5; and 10 µg/mL. To prepare samples for the calibration curve, 45 μL of matrix (blank plasma or brain homogenate) was spiked with 5 μL of standard working solution at an appropriate concentration level and vortexed for 10 s. Brain homogenates or serum samples (50 µL) as well as calibration samples were deproteinized with 150 μL of 0.1% formic acid in acetonitrile with an addition of internal standard (valsartan), shaken for 10 min (IKA Vibrax VXR, Königswinter, Germany), and centrifuged for 5 min at a speed of 8000× g (Eppendorf miniSpin centrifuge, Hamburg, Germany). Then, brain or serum supernatants were transferred into the autosampler vials. The autosampler temperature was maintained at 15 °C and a sample volume of 1 μL was injected into the LC-MS/MS system.
Chromatographic separation was carried out on the Hypersil GoldTM C18 analytical column (2.1 × 50 mm, 3 µm, Thermo Scientific, Waltham, MA, USA) with the oven temperature set at 30 °C. The mobile phase containing 0.1% formic acid in acetonitrile and 0.1% formic acid in water was delivered at a flow rate of […] in the gradient mode. Electrospray ionization (ESI) in the positive ion mode was used for ion production. The tandem mass spectrometer was operated at unit resolution in the selected reaction monitoring mode (SRM), monitoring the transitions of the protonated molecular ions m/z 366 to 201 (CE = 40 eV) and m/z 366 to 160 (CE = 40 eV) for compound F1, m/z 396 to 190 (CE = 39 eV) and m/z 396 to 160 (CE = 49 eV) for compound F2, m/z 434 to 145 (CE = 95 eV) and m/z 434 to 160 (CE = 47 eV) for compound F3, and m/z 456 to 167 (CE = 27 eV) and m/z 456 to 152 (CE = 85 eV) for compound F4. The first pair was used as a quantifier and the second for the identity verification—qualifier. One pair (m/z 436 to 235; CE = 42 eV) was monitored for valsartan used as an internal standard. The mass spectrometric conditions were optimized by continuous infusion of the standard solutions at the rate of 7 μL/min using a Harvard infusion pump (Harvard Apparatus, Holliston, MA, USA). The ion source temperature was maintained at 450 °C and the ion spray voltage was set at 4500 V. The curtain gas (CUR) was set at 40 and the collision gas (CAD) at Medium. The calibration curves were constructed by plotting the ratio of the peak area of the studied compound to internal standard (IS) versus drug concentration and generated by weighted (1/x·x) linear regression analysis. […]

rats = experiment: Carrageenan-induced paw edema (plethysmometer); assay type: in vivo, Wistar rats; settings: for Change in Edema Volume: mean ± SEM, rats; for Reduction in edema volume: vs control
Protocol: The acute and local inflammation and paw edema was induced by intraplantar (i.pl.) injection of 0.1 mL of 1% carrageenan solution in PBS into the rat’s right hind paw, according to the modified method of Winter and Lence, as described previously; (n = 84). […] Vehicle (1% Tween 80) was administered by the same route as the tested compounds.

[2] = Albino Swiss, mouse, ip, serum, 5 min after 5 mg/kg i.p., read-out: Cmax (maximal concentration)
[3] = brain, 5 mg/kg i.p. single dose
[4] = serum, 5 mg/kg i.p. single dose
[5] = 10 mg/kg i.p., 1 h after carrageenan
[6] = 10 mg/kg i.p., 2 h after carrageenan
[7] = 10 mg/kg i.p., 3 h after carrageenan
[8] = 20 mg/kg i.p., 1 h after carrageenan
[9] = 20 mg/kg i.p., 2 h after carrageenan
[10] = 20 mg/kg i.p., 3 h after carrageenan

For `COc1ccccc1N1CCN(CC(O)CN2C(=O)c3ccccc3C2=O)CC1` (stereo not drawn) [Compound F2], the “Pain response latency time after compound administration (hot plate, 55 °C)” value (“Pain response latency time” for short) (mice) was 30.36 s, the “Analgesic activity (hot plate)” value (mice) was 49.33% and the Kp ([1]; Albino Swiss, mouse, ip) was 0.79. For the same compound, the MRT ([1]; Albino Swiss, mouse, ip, brain) was 84.6 min, the Tmax ([1]; Albino Swiss, mouse, ip, brain) was 4.98 min and the half-life ([1]; Albino Swiss, mouse, ip, brain) was 54 min. The k el ([1]; Albino Swiss, mouse, ip, brain) was 0.000214 s⁻¹, the Cmax [1, 2] was 700 ng/mL and the CL/F ([1]; Albino Swiss, mouse, ip, serum) was 279 mL/min/kg. It also gave an MRT ([1]; Albino Swiss, mouse, ip, serum) of 68.4 min, a Tmax ([1]; Albino Swiss, mouse, ip, serum) of 4.98 min and a Vd/F ([1]; Albino Swiss, mouse, ip, serum) of 18.2 L/kg. For the same compound, the half-life ([1]; Albino Swiss, mouse, ip, serum) was 45 min, the k el ([1]; Albino Swiss, mouse, ip, serum) was 0.000256 s⁻¹ and the AUC0-inf ([1]; brain) was 237.16 µg∙h/L(kg). For the same compound, the “AUC0–8h” value ([1]; brain) was 230.83 µg∙h/L(kg), the Cmax [1, 3] was 465.38 µg/L(kg) and the AUC0-inf ([1]; serum) was 298.26 µg∙h/L(kg). For the same compound, the “AUC0–8h” value ([1]; serum) was 292.78 µg∙h/L(kg), the Cmax [1, 4] was 699.75 µg/L(kg) and the “Change in Edema Volume” value (rats; [5]) was 1.51 ± 0.04 ns mL. The “Change in Edema Volume” value (rats; [6]) was 1.82 ± 0.03 mL, the “Change in Edema Volume” value (rats; [7]) was 1.99 ± 0.02 ns mL and the “Reduction in edema volume” value (rats; 10 mg/kg, 2 h) was “approximately 9%”. For the same compound, the “Change in Edema Volume” value (rats; [8]) was 1.15 ± 0.08 mL, the “Change in Edema Volume” value (rats; [9]) was 1.63 ± 0.04 mL and the “Change in Edema Volume” value (rats; [10]) was 1.91± 0.03 ns mL. For the same compound, the “Reduction in edema volume” value (rats; 20 mg/kg, 1 h) was 26.8% and the “Reduction in edema volume” value (rats; 20 mg/kg, 2 h) was 17.7%.
For `O=C1c2ccccc2C(=O)N1CC(O)CN1CCN(c2ccccc2)CC1` (stereo not drawn) [Compound F1], the “Pain response latency time” value (mice) was 25.59 ± 1.84 s, the “Analgesic activity (hot plate)” value (mice) was 56.6% and the Kp ([1]; Albino Swiss, mouse, ip) was 1.77. For the same compound, the MRT ([1]; Albino Swiss, mouse, ip, brain) was 81.6 min, the Tmax ([1]; Albino Swiss, mouse, ip, brain) was 4.98 min and the half-life ([1]; Albino Swiss, mouse, ip, brain) was 54.6 min. For the same compound, the k el ([1]; Albino Swiss, mouse, ip, brain) was 0.000211 s⁻¹, the Cmax [1, 2] was 596 ng/mL and the CL/F ([1]; Albino Swiss, mouse, ip, serum) was 395 mL/min/kg. The MRT ([1]; Albino Swiss, mouse, ip, serum) was 79.2 min, the Tmax ([1]; Albino Swiss, mouse, ip, serum) was 4.98 min and the Vd/F ([1]; Albino Swiss, mouse, ip, serum) was 32.6 L/kg. For the same compound, the half-life ([1]; Albino Swiss, mouse, ip, serum) was 57 min, the k el ([1]; Albino Swiss, mouse, ip, serum) was 0.000203 s⁻¹ and the AUC0-inf ([1]; brain) was 374.60 µg∙h/L(kg). For the same compound, the “AUC0–8h” value ([1]; brain) was 368.04 µg∙h/L(kg), the Cmax [1, 3] was 970 µg/L(kg) and the AUC0-inf ([1]; serum) was 211.22 µg∙h/L(kg). The “AUC0–8h” value ([1]; serum) was 205.95 µg∙h/L(kg), the Cmax [1, 4] was 595.75 µg/L(kg) and the “Change in Edema Volume” value (rats; [5]) was 1.14 ± 0.05 mL. For the same compound, the “Change in Edema Volume” value (rats; [6]) was 1.51 ± 0.09 mL, the “Change in Edema Volume” value (rats; [7]) was 1.67 ± 0.09 mL and the “Reduction in edema volume” value (rats; 10 mg/kg, 1 h) was 27.8%. For the same compound, the “Reduction in edema volume” value (rats; 10 mg/kg, 2 h) was 17.5%, the “Reduction in edema volume” value (rats; 10 mg/kg, 3 h) was 17% and the “Change in Edema Volume” value (rats; [8]) was 1.09 ± 0.02 mL. For the same compound, the “Change in Edema Volume” value (rats; [9]) was 1.15 ± 0.07 mL, the “Change in Edema Volume” value (rats; [10]) was 1.55 ± 0.09 mL and the “Reduction in edema volume” value (rats; 20 mg/kg, 2 h) was 37.2%. The “Reduction in edema volume” value (rats; 20 mg/kg, 3 h) was 22.1%.
With `O=C1c2ccccc2C(=O)N1CC(O)CN1CCN(c2cccc(C(F)(F)F)c2)CC1` (stereo not drawn) [Compound F3] the “Pain response latency time” value (mice) was 24.24 ± 1.46 s, the “Analgesic activity (hot plate)” value (mice) was 42.92% and the Kp ([1]; Albino Swiss, mouse, ip) was 2.05. It also gave an MRT ([1]; Albino Swiss, mouse, ip, brain) of 190 min, a Tmax ([1]; Albino Swiss, mouse, ip, brain) of 15 min and a half-life ([1]; Albino Swiss, mouse, ip, brain) of 78.6 min. The k el ([1]; Albino Swiss, mouse, ip, brain) was 0.000147 s⁻¹, the Cmax [1, 2] was 210 ng/mL and the CL/F ([1]; Albino Swiss, mouse, ip, serum) was 297 mL/min/kg. The MRT ([1]; Albino Swiss, mouse, ip, serum) was 168 min, the Tmax ([1]; Albino Swiss, mouse, ip, serum) was 4.98 min and the Vd/F ([1]; Albino Swiss, mouse, ip, serum) was 32.4 L/kg. For the same compound, the half-life ([1]; Albino Swiss, mouse, ip, serum) was 75.6 min, the k el ([1]; Albino Swiss, mouse, ip, serum) was 0.000153 s⁻¹ and the AUC0-inf ([1]; brain) was 573.90 µg∙h/L(kg). The “AUC0–8h” value ([1]; brain) was 520.05 µg∙h/L(kg), the Cmax [1, 3] was 202.25 µg/L(kg) and the AUC0-inf ([1]; serum) was 280.26 µg∙h/L(kg). The “AUC0–8h” value ([1]; serum) was 258.81 µg∙h/L(kg), the Cmax [1, 4] was 210.25 µg/L(kg) and the “Change in Edema Volume” value (rats; [5]) was 1.37 ± 0.04 ns mL. The “Change in Edema Volume” value (rats; [6]) was 1.70 ± 0.04 ns mL, the “Change in Edema Volume” value (rats; [7]) was 1.89 ± 0.03 mL and the “Reduction in edema volume” value (rats; 10 mg/kg, 3 h) was 9.5%. For the same compound, the “Change in Edema Volume” value (rats; [8]) was 1.14 ± 0.05 mL, the “Change in Edema Volume” value (rats; [9]) was 1.47 ± 0.07 mL and the “Change in Edema Volume” value (rats; [10]) was 1.67 ± 0.06 mL. For the same compound, the “Reduction in edema volume” value (rats; 20 mg/kg, 1 h) was 16.8%, the “Reduction in edema volume” value (rats; 20 mg/kg, 2 h) was 19.2% and the “Reduction in edema volume” value (rats; 20 mg/kg, 3 h) was 20.1%.
